By pIC50 is commonly meant the negative decadic logarithm of the IC50, by convention in mol/L.

pIC50: −log10 of the molar value. A value given as a limit tells only on which side of the number the result lay.

Common to all, as to assay type: cell-based
Assay [1] has as its system TGFα release from HEK-293 cells. The experiment in a line: Counter screen (Example 4b): PMA-stimulated TGFα release from HEK-293 cells, AP readout. As to conditions: Homo sapiens, HEK293, HEK-293 cells expressing TGFα-AP, PMA 100 ng/mL, 2 h. On the procedure:
A tertiary counterscreen was also performed to monitor the release of TGFα, which is a substrate of iRhom1/ADAM17 and iRhom2/ADAM17, so its release should not be blocked by an iRhom2-selective inhibitor (Maretzky T et al. (July 2013), “iRhom2 controls the substrate selectivity of stimulated ADAM17-dependent ectodomain shedding”, PNAS 110(28): 11433-11438; and Li X et al. (May 2015), “iRhoms 1 and 2 are essential upstream regulators of ADAM17-dependent EGFR signaling”, PNAS 112(19): 6080-6085).
(§1) Expression plasmids for alkaline phosphatase (AP)-fused human KL2 and TGFα had been previously designed and generated through gene synthesis followed by subcloning into the pcDNA3.1(+)/Hygro expression vector. […] Subsequently, DNA amplifications were performed to obtain sufficient amounts of the expression vectors. The quality of DNA and gene sequences were confirmed through restriction digest and Sanger sequencing. In parallel, cell culture of HEK-293 cells was initiated. Master and working cell banks were prepared, scaled up and transfected with the respective constructs by electroporation. During cell culturing, cell density and viability were monitored to ensure optimal conditions for the transfections. After PMA stimulation, AP-coupled KL2 or TGFα were detected by measurement of AP activity in the supernatant.
(§2) After electroporation, cells were further cultured in presence of selection antibiotics, hygromycin B, to generate stably transfected polyclonal cell pools. For both assays, KL2 and TGFα shedding, the respective selected pool turned out to be suitable. Final assay conditions were determined for the selected pools. For all experiments, batimastat (BB94, 10 μM) was used as positive control for full inhibition of KL2 or TGFα shedding.
(§3) The wells of sterile 384-well flat bottom clear plates for TGF-AP assays were coated with 10 μL of 0.1 mg/mL poly-d-lysine for 3-4 hr at 25° C. or overnight at 4° C., then washed 2× with PBS and patted dry. 60 μL of cells (20,000/well) were added to the sterile 384-well plate and incubated in Optimem (with 2% FCS and 1% Pen-strep) overnight at 37° C. (5% CO2). After incubation overnight, 55 μL medium were removed with a BioTek EL406 and 10 μL of prediluted compounds were added to the cells for a final concentration of 20 μM. After incubation for 15 min, 15 μL of PMA (100 ng/mL final conc.) were added. The cells were incubated for 2 h at 37° C. (5% CO2). Then, the plates were centrifuged for 5 min at 1000 rpm and 12 μL of the supernatant was transferred to a fresh 384 well plate. 12 μL of pNPP p-nitrophenyl phosphate (final 1 M pNPP) was added. AP reaction was performed for 1 h at 37° C. The reaction was stopped by addition of 12 μL of NaOH (1 M final conc.), the plates were centrifuged to remove air bubbles and the absorbance of pNP was measured at 405 nm.
On the technique in general: A counterscreen serves to expose hits that act by an unwanted route or on another target.

In assay [2] the test system is TNFα release from THP-1 cells. The experiment in a line: Primary screen (Example 1b): LPS-stimulated TNFα release from THP-1 cells, overnight pre-incubation, HTRF. Particulars: Homo sapiens, overnight with inhibitor, 100 ng/mL LPS, 3 h, normalised to 10 μM Batimastat. The protocol: (§4) Two separate screens to identify novel small molecule inhibitors of iRhom2/ADAM17 activity were developed. […] Therefore, the primary screen for small molecule inhibitors of iRhom2/ADAM17 was a screen for inhibitors that blocked the release of TNFα from LPS-stimulated THP-1 human myeloid cells, a process that depends on iRhom2 and ADAM17. Since the release of TNFα from THP-1 cells can be blocked at many stages of the LPS/TLR4/iRhom2/ADAM17 pathway, a secondary screen was performed for another iRhom2/ADAM17 selective substrate, Kit-ligand 2 (KL-2) (Maretzky T et al. (July 2013), “iRhom2 controls the substrate selectivity of stimulated ADAM17-dependent ectodomain shedding”, PNAS 110(28): 11433-11438) in a different human cell type, human embryonic kidney cells (HEK 293).
THP-1 cells were plated in low volume 384 wells (10,000 cells per well in 12.6 μL RPMI medium) together with inhibitors or 10 μM BB94 and incubated over night. The next day, TNFα shedding was initiated by stimulation of THP-1 cells with 100 ng/mL LPS (1.8 μL of an 800 ng/mL LPS stock) for 3 hrs at 37° C. The extent of released TNFα was detected with the corresponding HTRF antibodies labeled with europium cryptate (donor) and d2 (acceptor). The HTRF signal was generated by proximity of europium cryptate and d2. All detection reagents were purchased from Cisbio. TNFα detection was performed according to the manufacturer's protocol (Product Insert for Cisbio TNFα (h) Kit Part #62HTNFAPEG & 62HTNFAPEH;
Low volume 384 well plates were pre-coated with small molecule library compounds for a final concentration of 20 μM in a 15 μL reaction, or 0.75 μL of 200 μM stock of BB94 in 5% DMSO (final concentration 0.25%). 12.6 μL of cell suspension [8E5/mL; 10,000 cells/well; culture RPMI medium] and pre-incubated at 37° C., 5% CO2, over night. The next day, 1.8 μL of an 800 ng/mL LPS stock was added [final concentration 100 ng/mL in 15 μL assay] and the cells were incubated at 37° C., 5% CO2, for 3 h. Subsequently, 3 μL of the HTRF-mix [used at 1:3 dilution of cisbio HTRF human TNF] was added and the plates were incubated for an additional 2 hrs at 25° C. After an incubation at room temperature for 2 h, the HTRF readout was performed. Then data evaluation for normalization against the 10 μM Batimastat control (=100% […]) was applied.
(In general: TR-FRET usually uses a lanthanide donor and a delayed reading to cut background.)

The subject of assay [3] is KL2 release from HEK-293 cells. The experiment in a line: Secondary screen (Example 3b): PMA-stimulated KL2 release from HEK-293 cells, AP readout. As to conditions: Homo sapiens, HEK293, HEK-293 cells expressing KL2-AP, PMA 100 ng/mL, 2 h, read-out: Secondary Screen IC50 KitL2. The protocol:
as §4, §1, §2
as §3, with “for KL2-AP” for “for TGF-AP”, “cells (40,000/well)” for “cells (20,000/well)”, “and 3” for “and 12”, “well plate and 9 μL of AP Balance Buffer was added per well.” for “well plate.”

For `O=C(c1c(Cl)cccc1Cl)N1CCC(Cc2ccc3c(c2)OCO3)CC1` [Compound 43], the pIC50 in assay [1] was below 4.40; in assay [2], 5.40; in assay [3], 4.45.
For `O=C(NCCc1cccnc1)c1ccc(-c2cc(-c3ccc(N4CCCCC4)cc3)n[nH]2)cc1` [Compound 44], in that order: below 4.40, 4.97 and below 4.40.
Taken in the same sequence, the figures for `Cc1ccsc1C1Nc2ccc3ccccc3c2C2=C1C(=O)CCC2` (stereo not drawn) [Compound 45] were below 4.40, below 4.49 and 4.55.
As to `O=C1Nc2ccccc2/C1=N\Nc1nc(Nc2ccccc2)nc(Nc2ccccc2)n1` [Compound 46], the pIC50 in assay [1] was below 4.40; in assay [2] it was 5.57; in assay [3], 4.95.
For `O=C(NC1CCCCCCC1)C1CCCN(c2nc3ccc(Br)cc3[nH]2)C1` (stereo not drawn) [Compound 47], in that order: below 4.40, 5.62 and 5.26.
Taken in the same sequence, the figures for `Cc1cc(NCCCn2ccnc2)n2ncc(-c3ccc(Cl)cc3)c2n1` [Compound 48] were below 4.40, 4.88 and below 4.40.
Taken in the same sequence, the figures for `Cc1cc(C)c2nc(N3CCNCC3)sc2c1` [Compound 49] were below 4.40, 4.88 and below 4.40.
On to `Cc1ccccc1Nc1nc(NCCCO)nc2c1cnn2-c1ccccc1` [Compound 50], for which the values for the pIC50 in assay [1], in assay [2] and in assay [3] were below 4.40, 4.96 and 4.79, respectively.

The record behind these values is US20240390355A1, “IRHOM2 INHIBITORS AND USES THEREOF” (NEW YORK SOCIETY FOR THE RELIEF OF THE RUPTURED AND …, priority 2021, published 2024).
